Measurements: PMC8944987, “In Vivo Efficacy of SQ109 against Leishmania donovani, Trypanosoma spp. and Toxoplasma gondii and In Vitro Activity of SQ109 Metabolites” (Biomedicines, 2022)
Values joined by “and” are separate entries in the source; they are usually repeats but may differ in a detail not shown here. Equal entries are not always repeated. “Also recorded” adds a separate entry of the source. Where two headings read alike, the source gives them in different places.

Legend:
[1] = Reported plasma protein binding; type: in vitro ADME, mice; details: from the reported plasma protein binding
T. gondii tachyzoites = assay: In vitro activity assay for T. gondii (td-tomato tachyzoites in hTert fibroblasts); type: cell-based; details: Toxoplasma gondii, Fibroblast; human fibroblasts (hTert), fluorescence 3 to 4 days; Figure 6A; read-out: IC50, T. gondii cell growth inhibition (intracellular tachyzoite assay)
Procedure: We used a parasite strain expressing red fluorescent protein (td-tomato) for in vitro drug testing. Tachyzoites were maintained in human fibroblasts (hTert cells). Human fibroblasts were cultured in 96-well plates for 24 h prior to the addition of 4000 fluorescent tachyzoites/well. Fluorescence values were measured for 3 to 4 days, and both excitation (544 nm) and emission (590 nm) were read from the bottom of the plates in a Molecular Devices (Molecular Devices, LLC, CA, USA) plate reader.

[2] = system: L. donovani promastigotes; set-up: method as in PMID 31897791; details: cited from earlier work
T. cruzi Dm28c = assay: T. cruzi acute in vivo mouse model; set-up: species or system BALB/c mice
Description: BALB/c mice were infected with TCT of T. cruzi Dm28c (10^7 cells) by i.p. injection. Five days post-infection, infected mice were sacrificed to collect BSF of T. cruzi. BALB/c mice were intraperitoneally infected with BSF of T. cruzi Dm28c (5 × 10^4 cells). Five days post-infection, BALB/c mice were infected with previously collected 2nd-round BSF cells (3 × 10^4 cells). Mice were divided into groups (n = 10) and treated orally with drugs for 5 consecutive days for 2 weeks by starting from day 2 post-infection administration of DPBS, 100 mg/kg of benznidazole, or 100 mg/kg of SQ109 via p.o. route, respectively. Parasitemia was evaluated every 2 days for 5 weeks by blood collection from the mouse tail vein, and survival was monitored for 2 months. Mice showing impaired health status were euthanized.

[3] = system: L. donovani intracellular amastigotes; set-up: method as in PMID 31897791; details: J774 macrophages as host cells; cited from earlier work
T. b. brucei Lister 427 = assay: T. brucei acute in vivo mouse model; set-up: species or system BALB/c mice
[4] = system: T. b. brucei Lister strain 427 bloodstream form (BSF); assay: In vitro activity assay for T. brucei (resazurin growth inhibition); type: cell-based; details: Trypanosoma brucei
[5] = system: L. mexicana intracellular amastigotes; set-up: method as in PMID 27458218; details: cited from earlier work
T. cruzi epimastigotes = system: T. cruzi epimastigotes; set-up: method as in PMID 25583723; details: cited from earlier work
[6] = system: T. gondii tachyzoites of the RH strain; assay: T. gondii in vivo mouse model; set-up: species or system Webster mice; details: for survival of T. gondii infected mice: 20 and 50 mg/kg daily for 10 days
[7] = set-up: method as in PMID 16432511; details: in mice; cited from earlier work
[8] = system: intracellular L. donovani amastigotes in THP-1; assay: L. donovani intracellular amastigotes assay in THP-1 (image based); type: cell-based
[9] = Adverse effects observed during the in vivo experiments; set-up: species or system mice; details: tested doses (20 to 100 mg/kg)
[10] = cited from earlier work
T. cruzi trypomastigotes = system: T. cruzi trypomastigotes; set-up: method as in PMID 25583723; details: cited from earlier work
[11] = system: L. donovani promastigotes; assay: L. donovani promastigotes assay (resazurin); type: cell-based; details: Leishmania donovani
[12] = Host cell toxicity in the T. cruzi amastigote assay; type: cell-based; details: human
Procedure: (§1) U2OS human osteosarcoma cells were maintained in DMEM supplemented with high glucose, 10% FBS, and 1% P/S at 37 °C with 5% CO2 in air. […] Cell images were acquired by an automated image analyzer (Operetta, Perkin Elmer Technology, Waltham, MA, USA); analysis included at least 1000 cells in five fields per well. For the imaging of infected cells and parasites, Draq-5 was observed under a 20× air objective. An image analysis algorithm (Columbus, Perkin Elmer Technology) was used to detect the Draq-5 signal in the nuclei of cells and parasites as described in a previous article and shown in Supplementary Figure S1 [20]. The number of parasites was defined by the value of the number of parasites in infected cells of the acquired image.

[13] = system: intracellular T. cruzi Dm28c amastigotes in U2OS; assay: T. cruzi intracellular amastigotes assay in U2OS (image based); type: cell-based; details: Trypanosoma cruzi
Procedure: as §1

L. donovani amastigotes = assay: L. donovani (VL) in vivo mouse model, liver LDU; set-up: species or system BALB/c mice; details: for parasite burden in liver (LDU): 5 days of treatment; for reduction of parasite burden: versus vehicle-treated group
Procedure: BALB/c mice (n = 5) were injected with 2 × 10^7 hamster spleen-derived L. donovani amastigotes via the retro-orbital venous sinus route. From day 7 post-infection, groups of mice were treated using the drug vehicle only, miltefosine (30 mg/kg), or SQ109 (30, 50, 100 mg/kg). On day 16 post-infection, all animals were humanely euthanized and assessed microscopically using Giemsa-stained liver imprints. […] The LDU values for the drug-treated samples were compared to those of the untreated samples.

[14] = Reported tissue (liver) accumulation on repeated oral dosing; type: in vivo; details: assuming the same volume-to-mass ratio, 28-day oral dosing, 10 mg/kg, from ref 30, read-out: SQ109 liver concentration
[15] = system: L. mexicana promastigotes; set-up: method as in PMID 27458218; details: cited from earlier work
[16] = 100 mg/kg oral gavage, q.d. for 2 weeks

In the case of CC(C)=CCC/C(C)=C/CNCCNC1C2CC3CC(C2)CC1C3 (stereo not shown) [SQ109, N-adamantan-2-yl-N’-((E)-3,7-dimethyl-octa-2,6-dienyl)-ethane-1,2-diamine], the “free-drug fraction expected in mice plasma” value [1] is listed as ~ 90%, the IC50 (T. gondii tachyzoites) is listed as 1.82 µM and the IC50 [2] is listed as 0.63 µM. The “delay of the peak of parasitemia compared to the vehicle control” value (T. cruzi Dm28c; [16]) was 4 days, the peak of parasitemia (T. cruzi Dm28c; [16]) was 18 days post-infection and the “parasite reduction at the peak of parasitemia of the vehicle group” value (T. cruzi Dm28c; 100 mg/kg oral gavage, q.d. for 2 weeks, 14 days post-infection) was 46.1%. The “survival of T. cruzi infected mice” value (T. cruzi Dm28c; 100 mg/kg p.o., 40 days post-infection) was 80%, the IC50 [3] was 0.00717 µM and 0.0072 µM and the “extended survival compared to the vehicle control” value (T. b. brucei Lister 427; 30 mg/kg, q.d. for 5 days, p.o.) was 3.4 days. The “average day of survival” value (T. b. brucei Lister 427; 30 mg/kg, q.d. for 5 days, p.o., T. brucei infected BALB/c mice) was 8.6 days, the “average days of extended survival compared to the vehicle control” value (T. b. brucei Lister 427; 100 mg/kg, q.d. for 5 days, p.o.) was 3.6 days and the “parasitemia in blood, in words” value (T. b. brucei Lister 427; 30 or 100 mg/kg p.o. for 5 days, Figure 3B) was “parasitemia rapidly increased after the termination of SQ109 administration; also recorded: not able to completely clear the parasites in the bloodstream”. For the same compound, the EC50 ([4]; bloodstream forms, read-out: T. brucei BSF EC50 (converted)) was 0.81 µM, the IC50 ([4]; 3 days (72 h) of compound incubation, Figure 2A, read-out: IC50, T. brucei trypomastigote viability) was 0.32 µM and the IC50 [5] was about 0.011 µM. For the same compound, the IC50 (T. cruzi epimastigotes) was 4.6 µM, the “survival / protection of T. gondii infected mice against the initial infection” value ([6]; hypervirulent RH strain, 50 mg/kg i.p.) was “Eighty percent” and the “survival of T. gondii infected mice” value ([6]; i.p., Figure 6B) was 50–80%. For the same compound, the “survival of T. gondii infected mice” value ([6]; oral gavage, 40 days post-infection, Figure 6C) was 30–40%, the “animals surviving the re-challenge at day 42” value ([6]; treated with 20 mg/kg/day) was 4 out of 6 and the “outcome of the re-challenge at 42 days, in words” value ([6]; treated with 50 mg/kg/day) was “all died with the challenge”. The plasma protein binding [7] was 5.8–8.5%, the “anti-amastigote activity in the current study less than the reported one” value ([8]; L. donovani, THP-1 (this study) versus J774 (ref 10)) was ~ 200 fold and the IC50 ([8]; Leishmania donovani, 72 h, differentiated THP-1 host cells, 3 days of compound incubation, Figure 2F) was 1.38 µM. The “adverse effects throughout the in vivo experiments” value [9] was “did not observe any adverse effects”, the “maximum tolerated dose (MTD)” value [10] was 600 mg/kg and the IC50 (T. cruzi trypomastigotes) was 0.05 µM. It also gave an EC50 ([11]; promastigotes, read-out: L. donovani EC50 (PRO)) of 0.28 µM, an IC50 ([11]; 72 h, Figure 2E, read-out: IC50, L. donovani promastigote growth) of 0.175 µM and a CC50 at 3 days ([12]; 3 days of compound incubation, Figure 2D, read-out: half-maximal cytotoxic concentration (CC50) against the host U2OS) of 2.95 µM. For the same compound, the CC50 at 3 days ([12]; amastigote host cells, read-out: T. cruzi Dm28c CC50 (U2OS)) was 3.6 µM, the IC50 ([13]; 72 h, U2OS host cells, 3 days of compound incubation, Figure 2D, read-out: IC50, intracellular T. cruzi amastigote survival) was 0.61 µM and the EC50 ([13]; amastigotes in U2OS, read-out: T. cruzi Dm28c EC50 (AMA)) was 1.1 µM. For the same compound, the “parasite burden in liver (LDU)” value (L. donovani amastigotes; 30 mg/kg) was 1060 ± 110 LDU, the “parasite burden in liver (LDU)” value (L. donovani amastigotes; 50 mg/kg) was 772 ± 89 LDU and the “reduction of parasite burden” value (L. donovani amastigotes; 50 mg/kg) was 31.8%. For the same compound, the “parasite burden in liver (LDU)” value (L. donovani amastigotes; 100 mg/kg) was 737 ± 145 LDU, the “reduction of parasite burden” value (L. donovani amastigotes; 100 mg/kg) was 34.9% and the concentration at 28 days [14] was about 6 µM. The IC50 [15] was about 0.5 µM.
